Reference: patent US20240358692A1, “TREATMENT OF SCLERODERMA” (Aisa Pharma, Inc., priority 2023, published 2024)

Test system: participants with SSc-RP
Test: Average severity of weekly RP attacks (VAS 0-10)
Assay type: in vivo, human
Conditions: for Average Severity (0-10) of weekly RP attacks, Median / Average Severity (0-10) of weekly RP attacks, Mean / Average severity of weekly RP attacks, Percent Change from Baseline, Mean / Average severity of weekly RP attacks, Change from Baseline, Mean / Average severity of weekly RP attacks, Percent Change from Baseline, Median / Average severity of weekly RP attacks, Change from Baseline, Median: all attacks
Text: The absolute change in average severity of weekly RP attacks (VAS 0-10 cm scale) from baseline to the end of each Dosing Period was and will be a secondary outcome variable. The sponsor-developed participant-informed diary will be used to record data. Average severity of weekly RP attacks is defined as the total severity scores of RP attacks divided by total number of RP attacks within the last 7 days of each dosing period. Total severity scores of RP attacks during the last 7 days of screening period divided by the total number of RP attacks will be used as baseline for the analysis of all periods. The variable will be calculated similar to frequency data as before.

[1] = Pooled Cilnidipine 10 mg and Cilnidipine 10 mg + Tadalafil 5 mg, Excluding Outliers, 1st Baseline RCS subgroup, ITT Part A, last 7 days of dosing period
[2] = Pooled Cilnidipine 10 mg and Cilnidipine 10 mg + Tadalafil 5 mg, Excluding Outliers, 2nd Baseline RCS subgroup, ITT Part A, last 7 days of dosing period
[3] = Pooled Cilnidipine 10 mg and Cilnidipine 10 mg + Tadalafil 5 mg, ITT Part A, last 7 days of dosing period
[4] = Pooled Cilnidipine 10 mg and Cilnidipine 10 mg + Tadalafil 5 mg, Excluding Outliers, by Baseline RCS: second subgroup of Table C-8, ITT Part A
[5] = Pooled Cilnidipine 10 mg and Cilnidipine 10 mg + Tadalafil 5 mg, by Baseline RCS: second subgroup of Table C-7, ITT Part A
[6] = Pooled Cilnidipine 20 mg and Cilnidipine 20 mg + Tadalafil 5 mg, 1st Baseline RCS subgroup, ITT Part A, last 7 days of dosing period
[7] = Pooled Cilnidipine 20 mg and Cilnidipine 20 mg + Tadalafil 5 mg, 2nd Baseline RCS subgroup, ITT Part A, last 7 days of dosing period
[8] = Pooled Cilnidipine 20 mg and Cilnidipine 20 mg + Tadalafil 5 mg, Excluding Outliers, 1st Baseline RCS subgroup, ITT Part A, last 7 days of dosing period
[9] = Pooled Cilnidipine 20 mg and Cilnidipine 20 mg + Tadalafil 5 mg, Excluding Outliers, 2nd Baseline RCS subgroup, ITT Part A, last 7 days of dosing period
[10] = Pooled Cilnidipine 20 mg and Cilnidipine 20 mg + Tadalafil 5 mg, ITT Part A, last 7 days of dosing period
[11] = Pooled Cilnidipine 20 mg and Cilnidipine 20 mg + Tadalafil 5 mg, Excluding Outliers, by Baseline RCS: first subgroup of Table C-8, ITT Part A
[12] = Pooled Cilnidipine 20 mg and Cilnidipine 20 mg + Tadalafil 5 mg, by Baseline RCS: first subgroup of Table C-7, ITT Part A
[13] = Pooled Cilnidipine, 1st Baseline RCS subgroup, ITT Part A, last 7 days of dosing period
[14] = Pooled Cilnidipine, Excluding Outliers, 1st Baseline RCS subgroup, ITT Part A, last 7 days of dosing period
[15] = Pooled Cilnidipine, ITT Part A, last 7 days of dosing period
[16] = Pooled Cilnidipine, Excluding Outliers, ITT Part A
[17] = Pooled Cilnidipine, Excluding Outliers, by Baseline RCS: first subgroup of Table C-8, ITT Part A
[18] = Pooled Cilnidipine, by Baseline RCS: first subgroup of Table C-7, ITT Part A
[19] = Pooled Cilnidipine, excluding outliers, ITT Part A
[20] = Pooled Cilnidipine, excluding outliers, severity 0-10, ITT Part A
[21] = Pooled Cilnidipine, severity 0-10, ITT Part A

SMILES: COCCOC(=O)C1=C(C)NC(C)=C(C(=O)OC/C=C/c2ccccc2)C1c1cccc([N+](=O)[O-])c1 (centres unmarked) [Cilnidipine]
- Average Severity of Weekly Symptomatic RP Attacks, Change from Baseline, Median [1]: −1.22
- Average Severity of Weekly Symptomatic RP Attacks, Mean [1]: 3.34
- Average Severity of Weekly Symptomatic RP Attacks, Median [1]: 3.34
- Average Severity of Weekly Symptomatic RP Attacks, Percent Change from Baseline, Mean [1]: −20.18%
- Average Severity of Weekly Symptomatic RP Attacks, Percent Change from Baseline, Median [1]: −20.18%
- Average Severity of Weekly Symptomatic RP Attacks, Change from Baseline, Mean [2]: −1.13
- Average Severity of Weekly Symptomatic RP Attacks, Change from Baseline, Median [2]: −1.13
- Average Severity of Weekly Symptomatic RP Attacks, Mean [2]: 5.23
- Average Severity of Weekly Symptomatic RP Attacks, Median [2]: 5.23
- Average Severity of Weekly Symptomatic RP Attacks, Percent Change from Baseline, Mean [2]: −17.81%
- Average Severity of Weekly Symptomatic RP Attacks, Percent Change from Baseline, Median [2]: −17.81%
- Average Severity of Weekly RP Attacks (All Attacks), Change from Baseline, Mean [3]: −1.34
- Average Severity of Weekly RP Attacks (All Attacks), Change from Baseline, Median [3]: −1.32
- Average Severity of Weekly RP Attacks (All Attacks), Mean [3]: 3.62
- Average Severity of Weekly RP Attacks (All Attacks), Median [3]: 3.05
- Average Severity of Weekly RP Attacks (All Attacks), Percent Change from Baseline, Mean [3]: −23.02%
- Average Severity of Weekly RP Attacks (All Attacks), Percent Change from Baseline, Median [3]: −21.20%
- Average Severity (0-10) of weekly RP attacks, Median (Pooled Cilnidipine 10 mg and Cilnidipine 10 mg + Tadalafil 5 mg, Excluding Outliers, ITT Part A): 3.05
- Average Severity (0-10) of weekly RP attacks, Mean [4]: 4.90
- Average Severity (0-10) of weekly RP attacks, Median [4]: 4.90
- Average severity of weekly RP attacks, Percent Change from Baseline, Mean [4]: −21.20%
- Average severity of weekly RP attacks, Change from Baseline, Mean (Pooled Cilnidipine 10 mg and Cilnidipine 10 mg + Tadalafil 5 mg, by Baseline RCS: first subgroup of Table C-7, ITT Part A): −1.35
- Average Severity (0-10) of weekly RP attacks, Mean [5]: 4.90
- Average Severity (0-10) of weekly RP attacks, Median [5]: 4.90
- Average severity of weekly RP attacks, Percent Change from Baseline, Mean [5]: −21.20%
- Average severity of weekly RP attacks, Percent Change from Baseline, Median [5]: −21.20%
- Average Severity of Weekly Symptomatic RP Attacks, Change from Baseline, Mean [6]: −1.06
- Average Severity of Weekly Symptomatic RP Attacks, Change from Baseline, Median [6]: −0.33
- Average Severity of Weekly Symptomatic RP Attacks, Mean [6]: 2.85
- Average Severity of Weekly Symptomatic RP Attacks, Median [6]: 2.40
- Average Severity of Weekly Symptomatic RP Attacks, Percent Change from Baseline, Mean [6]: −24.28%
- Average Severity of Weekly Symptomatic RP Attacks, Percent Change from Baseline, Median [6]: −12.02%
- Average Severity of Weekly Symptomatic RP Attacks, Change from Baseline, Mean [7]: −1.79
- Average Severity of Weekly Symptomatic RP Attacks, Change from Baseline, Median [7]: −1.79
- Average Severity of Weekly Symptomatic RP Attacks, Mean [7]: 5.06
- Average Severity of Weekly Symptomatic RP Attacks, Median [7]: 5.06
- Average Severity of Weekly Symptomatic RP Attacks, Percent Change from Baseline, Mean [7]: −26.14%
- Average Severity of Weekly Symptomatic RP Attacks, Percent Change from Baseline, Median [7]: −26.14%
- Average Severity of Weekly Symptomatic RP Attacks, Change from Baseline, Mean [8]: −1.06
- Average Severity of Weekly Symptomatic RP Attacks, Change from Baseline, Median [8]: −0.33
- Average Severity of Weekly Symptomatic RP Attacks, Mean [8]: 2.85
- Average Severity of Weekly Symptomatic RP Attacks, Median [8]: 2.40
- Average Severity of Weekly Symptomatic RP Attacks, Percent Change from Baseline, Mean [8]: −24.28%
- Average Severity of Weekly Symptomatic RP Attacks, Percent Change from Baseline, Median [8]: −12.02%
- Average Severity of Weekly Symptomatic RP Attacks, Change from Baseline, Mean [9]: −1.79
- Average Severity of Weekly Symptomatic RP Attacks, Change from Baseline, Median [9]: −1.79
- Average Severity of Weekly Symptomatic RP Attacks, Mean [9]: 5.06
- Average Severity of Weekly Symptomatic RP Attacks, Median [9]: 5.06
- Average Severity of Weekly Symptomatic RP Attacks, Percent Change from Baseline, Mean [9]: −26.14%
- Average Severity of Weekly Symptomatic RP Attacks, Percent Change from Baseline, Median [9]: −26.14%
- Average Severity of Weekly RP Attacks (All Attacks), Change from Baseline, Mean [10]: −1.02
- Average Severity of Weekly RP Attacks (All Attacks), Change from Baseline, Median [10]: −0.96
- Average Severity of Weekly RP Attacks (All Attacks), Mean [10]: 3.35
- Average Severity of Weekly RP Attacks (All Attacks), Median [10]: 3.06
- Average Severity of Weekly RP Attacks (All Attacks), Percent Change from Baseline, Mean [10]: −21.83%
- Average Severity of Weekly RP Attacks (All Attacks), Percent Change from Baseline, Median [10]: −16.40%
- Average severity of weekly RP attacks, Change from Baseline, Median (Pooled Cilnidipine 20 mg and Cilnidipine 20 mg + Tadalafil 5 mg, Excluding Outliers, ITT Part A): −0.96
- Average Severity (0-10) of weekly RP attacks, Median [11]: 2.40
- Average severity of weekly RP attacks, Change from Baseline, Mean [11]: −0.84
- Average severity of weekly RP attacks, Change from Baseline, Median [11]: −0.39
- Average Severity (0-10) of weekly RP attacks, Median [12]: 2.40
- Average severity of weekly RP attacks, Change from Baseline, Mean [12]: −0.84
- Average severity of weekly RP attacks, Change from Baseline, Median [12]: −0.39
- Severity (change) (Pooled Cilnidipine (n = 7)): −16%
- Average Severity of Weekly Symptomatic RP Attacks, Change from Baseline, Mean [13]: −0.87
- Average Severity of Weekly Symptomatic RP Attacks, Change from Baseline, Median [13]: −0.33
- Average Severity of Weekly Symptomatic RP Attacks, Mean [13]: 2.79
- Average Severity of Weekly Symptomatic RP Attacks, Median [13]: 2.40
- Average Severity of Weekly Symptomatic RP Attacks, Percent Change from Baseline, Mean [13]: −19.22%
- Average Severity of Weekly Symptomatic RP Attacks, Percent Change from Baseline, Median [13]: −12.02%
- Average Severity of Weekly Symptomatic RP Attacks, Change from Baseline, Mean [14]: −0.87
- Average Severity of Weekly Symptomatic RP Attacks, Change from Baseline, Median [14]: −0.33
- Average Severity of Weekly Symptomatic RP Attacks, Mean [14]: 2.79
- Average Severity of Weekly Symptomatic RP Attacks, Median [14]: 2.40
- Average Severity of Weekly Symptomatic RP Attacks, Percent Change from Baseline, Mean [14]: −19.22%
- Average Severity of Weekly Symptomatic RP Attacks, Percent Change from Baseline, Median [14]: −12.02%
- Average Severity of Weekly Symptomatic RP Attacks, Percent Change from Baseline, Mean (Pooled Cilnidipine, ITT Part A): −19.22%
- Average Severity of Weekly Symptomatic RP Attacks, Percent Change from Baseline, Median (Pooled Cilnidipine, ITT Part A): −12.02%
- Average Severity of Weekly RP Attacks (All Attacks), Change from Baseline, Mean [15]: −0.71
- Average Severity of Weekly RP Attacks (All Attacks), Change from Baseline, Median [15]: −0.20
- Average Severity of Weekly RP Attacks (All Attacks), Mean [15]: 2.55
- Average Severity of Weekly RP Attacks (All Attacks), Median [15]: 2.40
- Average Severity of Weekly RP Attacks (All Attacks), Percent Change from Baseline, Mean [15]: −17.99%
- Average Severity of Weekly RP Attacks (All Attacks), Percent Change from Baseline, Median [15]: −7.69%
- Average Severity (0-10) of weekly RP attacks, Median [16]: 2.40
- Average severity of weekly RP attacks, Change from Baseline, Mean [16]: −0.71
- Average severity of weekly RP attacks, Change from Baseline, Median [16]: −0.20
- Average Severity (0-10) of weekly RP attacks, Mean [17]: 2.55
- Average Severity (0-10) of weekly RP attacks, Median [17]: 2.40
- Average severity of weekly RP attacks, Change from Baseline, Mean [17]: −0.71
- Average severity of weekly RP attacks, Change from Baseline, Median [17]: −0.20
- Average severity of weekly RP attacks, Percent Change from Baseline, Mean [17]: −17.99%
- Average severity of weekly RP attacks, Percent Change from Baseline, Median [17]: −7.69%
- Average Severity (0-10) of weekly RP attacks, Mean [18]: 2.55
- Average Severity (0-10) of weekly RP attacks, Median [18]: 2.40
- Average severity of weekly RP attacks, Change from Baseline, Mean [18]: −0.71
- Average severity of weekly RP attacks, Change from Baseline, Median [18]: −0.20
- Average severity of weekly RP attacks, Percent Change from Baseline, Mean [18]: −17.99%
- Average severity of weekly RP attacks, Percent Change from Baseline, Median [18]: −7.69%
- Average Severity of Weekly Symptomatic RP Attacks, Percent Change from Baseline, Mean [19]: −19.22%
- Average Severity of Weekly Symptomatic RP Attacks, Percent Change from Baseline, Median [19]: −12.02%
- Average Severity of Weekly Symptomatic RP Attacks, Change from Baseline, Mean [20]: −0.87
- Average Severity of Weekly Symptomatic RP Attacks, Change from Baseline, Median [20]: −0.33
- Average Severity of Weekly Symptomatic RP Attacks, Mean [20]: 2.79
- Average Severity of Weekly Symptomatic RP Attacks, Median [20]: 2.40
- Average Severity of Weekly Symptomatic RP Attacks, Change from Baseline, Mean [21]: −0.87
- Average Severity of Weekly Symptomatic RP Attacks, Change from Baseline, Median [21]: −0.33
- Average Severity of Weekly Symptomatic RP Attacks, Mean [21]: 2.79
- Average Severity of Weekly Symptomatic RP Attacks, Median [21]: 2.40
- severity of attacks, dose response (cilnidipine monotherapy 10 mg vs 20 mg (n=3)): 20 mg reducing severity more than 10 mg
